Assay results from US6365591B1, “Isoxazolecarboxamide derivatives” (Recordati, S.A., Chemical and Pharmacueticals Company, priority 1999, dated 2002).

Key:
[1] = biological target: T1, recombinant α1b-adrenoceptor (Homo sapiens, UniProt P35368); test: biochemical
T1 sequence (P35368 1-520): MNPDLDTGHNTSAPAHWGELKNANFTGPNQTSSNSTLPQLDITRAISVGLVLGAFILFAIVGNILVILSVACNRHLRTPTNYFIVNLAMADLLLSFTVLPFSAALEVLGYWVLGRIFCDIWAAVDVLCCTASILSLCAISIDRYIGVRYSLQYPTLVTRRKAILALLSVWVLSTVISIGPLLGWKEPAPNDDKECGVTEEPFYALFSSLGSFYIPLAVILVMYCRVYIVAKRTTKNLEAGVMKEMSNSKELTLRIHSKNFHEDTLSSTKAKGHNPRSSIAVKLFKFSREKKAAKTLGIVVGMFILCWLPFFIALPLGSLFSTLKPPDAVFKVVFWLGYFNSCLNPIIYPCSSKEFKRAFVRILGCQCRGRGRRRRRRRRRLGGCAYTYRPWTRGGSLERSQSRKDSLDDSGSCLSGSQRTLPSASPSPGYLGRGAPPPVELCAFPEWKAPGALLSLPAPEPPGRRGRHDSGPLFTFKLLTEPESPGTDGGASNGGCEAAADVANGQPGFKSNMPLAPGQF
Experimental: (§4) Determination of Affinity for Cloned α1 Adrenergic Receptors and 5-HT1A Serotoninergic Receptors by Radioligand Binding Assay
(§5) Determination of affinity for cloned subtypes of the α1-adrenoceptor was performed in membranes from cells transfected by electroporation with DNA expressing the genes encoding each α1-adrenoceptor subtype.
(§6) Non-specific binding was determined in the presence of 10 μM phentolamine. Incubation was stopped by addition of ice-cold Tris buffer and rapid filtration through 0.2%-polyethyleneimine pretreated Schleicher & Schuell GF52 filters.

[2] = biological target: T2, human 5-HT1A-serotoninergic receptor (Homo sapiens, UniProt P08908); test: Radioligand binding ([3H]8-OH-DPAT) to cloned 5-HT1A receptor in HeLa cell membranes; conditions: mean Ki, read-out: Affinity for 5-HT1A receptor, Ki
T2 construct: expressed in transfected cells; host or cells: HeLa
T2 sequence (P08908 1-422): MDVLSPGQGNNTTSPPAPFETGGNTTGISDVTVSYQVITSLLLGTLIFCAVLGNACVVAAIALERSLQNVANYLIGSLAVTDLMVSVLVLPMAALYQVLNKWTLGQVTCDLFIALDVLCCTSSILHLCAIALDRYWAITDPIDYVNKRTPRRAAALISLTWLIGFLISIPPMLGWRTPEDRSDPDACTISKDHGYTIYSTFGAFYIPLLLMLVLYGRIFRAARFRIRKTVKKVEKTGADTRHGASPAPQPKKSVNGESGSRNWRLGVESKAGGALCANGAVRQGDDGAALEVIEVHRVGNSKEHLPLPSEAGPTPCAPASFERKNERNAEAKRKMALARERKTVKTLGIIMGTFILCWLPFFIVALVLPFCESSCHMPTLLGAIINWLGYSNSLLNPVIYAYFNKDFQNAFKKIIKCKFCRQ
Source text: Data were expressed as mean Ki.

[3] = biological target: T3, recombinant α1a-adrenoceptor (UniProt P35348); conditions: read-out: Affinity for recombinant α1a-adrenoceptor subtype, Ki; [3H]prazosin, membranes of transfected cells; mean Ki
T3 sequence (P35348 1-466): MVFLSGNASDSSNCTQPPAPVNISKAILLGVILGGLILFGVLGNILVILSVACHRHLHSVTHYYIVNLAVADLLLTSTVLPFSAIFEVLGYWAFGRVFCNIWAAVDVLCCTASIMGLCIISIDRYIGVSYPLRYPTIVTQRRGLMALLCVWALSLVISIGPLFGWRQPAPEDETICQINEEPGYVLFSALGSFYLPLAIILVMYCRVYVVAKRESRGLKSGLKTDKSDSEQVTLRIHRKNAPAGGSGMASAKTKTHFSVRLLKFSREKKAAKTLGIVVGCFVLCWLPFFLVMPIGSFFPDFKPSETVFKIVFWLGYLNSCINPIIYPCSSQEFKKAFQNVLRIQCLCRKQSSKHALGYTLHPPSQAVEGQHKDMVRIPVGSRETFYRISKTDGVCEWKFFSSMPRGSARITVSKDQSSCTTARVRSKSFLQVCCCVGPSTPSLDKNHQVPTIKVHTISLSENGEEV
Experimental: as §4, §5, §6

[4] = system: diastolic blood pressure; test: Diastolic blood pressure in anaesthetised dogs, i.v. administration; assay type: in vivo, dog
Experimental: (§1) Effects on Urethral Contractions (Induced by Noradrenaline Injection and Hypogastric-nerve Stimulation) and on Blood Pressure in Dogs After Intravenous Administration
(§2) The experiments were performed according to the method of Imagawa et al. (J. Pharmacol. Methods, 22:103-111, 1989) with substantial modifications, as follows: adult male beagle dogs, weighing 8-10 kg, were anaesthetised with pentobarbital sodium (30 mg/kg i.v. and 2 mg/kg/h i.v.), intubated and spontaneously ventilated with room air. In order to monitor systemic blood pressure (BP), a polyethylene (PE) catheter was introduced into the aortic arch through the left femoral artery. A collateral of the left femoral vein was cannulated for infusion of anaesthetic, and the right femoral vein was cannulated for administration of the compounds. […] Prostatic urethral pressure was monitored with a Mikro-tip catheter (5F) introduced into the bladder via the external urethral meatus, and withdrawn until the pressure transducer was positioned in the prostatic region of the urethra. […]
(§3) After a stabilizing period following the surgical procedure (30 minutes), in which arterial and prostatic urethral pressure were continuously monitored as basal values, i.a. administration of NA and stimulation of the hypogastric nerve were alternately made at intervals of 10 minutes. […]

[5] = system: prostatic urethral pressure (hypogastric-nerve stimulation); test: Urethral contractions induced by hypogastric-nerve stimulation in anaesthetised dogs, i.v. administration; assay type: in vivo, dog
Experimental: as §1, §2, §3

[6] = system: prostatic urethral pressure (noradrenaline-induced); test: Urethral contractions induced by intraarterial noradrenaline in anaesthetised dogs, i.v. administration; assay type: in vivo, dog
Experimental: as §1, §2, §3

[7] = biological target: T4, recombinant α1d-adrenoceptor (UniProt P25100); conditions: [3H]prazosin, membranes of transfected cells; mean Ki
T4 sequence (P25100 1-572): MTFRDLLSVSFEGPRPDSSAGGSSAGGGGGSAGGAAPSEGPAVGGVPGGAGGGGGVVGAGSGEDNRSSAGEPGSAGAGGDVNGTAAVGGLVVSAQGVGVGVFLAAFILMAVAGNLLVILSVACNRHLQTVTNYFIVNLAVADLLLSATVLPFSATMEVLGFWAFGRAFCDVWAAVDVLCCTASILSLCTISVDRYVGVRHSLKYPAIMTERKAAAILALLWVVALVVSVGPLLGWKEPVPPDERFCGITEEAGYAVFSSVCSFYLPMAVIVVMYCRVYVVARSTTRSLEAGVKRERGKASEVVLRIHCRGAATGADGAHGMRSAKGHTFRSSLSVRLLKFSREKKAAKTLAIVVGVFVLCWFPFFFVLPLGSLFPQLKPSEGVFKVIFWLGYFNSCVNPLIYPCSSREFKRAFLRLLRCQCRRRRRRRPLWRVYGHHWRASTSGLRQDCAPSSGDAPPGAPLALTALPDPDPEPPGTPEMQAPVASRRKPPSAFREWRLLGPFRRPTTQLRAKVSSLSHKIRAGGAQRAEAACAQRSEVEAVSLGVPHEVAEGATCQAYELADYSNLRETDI
Experimental: as §4, §5, §6

Row | Compound | Ki [1] [nM] | Ki [2] [nM] | Ki [3] [nM] | DBP ED25: dose inducing a 25% decrease in diastolic blood pressure [4] [mg/kg] | UP ID50 HYP: dose inhibiting by 50% the urethral contractions induced by hypogastric-nerve stimulation [5] [mg/kg] | UP ID50 NA: dose inhibiting by 50% the urethral contractions induced by noradrenaline [6] [mg/kg] | Affinity for recombinant α1d-adrenoceptor subtype, Ki [7]
1 | COc1ccc(Cl)cc1N1CCN(CCCNC(=O)c2c(-c3ccccc3)noc2C)CC1 [Example 1, N-{3-[4-(5-Chloro-2-methoxyphenyl)-1-piperazinyl]propyl}-5-methyl-3-phenylisoxazole-4-carboxamide] | 23.6 | 436 | 0.77 | 0.3545 |  |  | 
2 | Cc1onc(-c2ccccc2)c1C(=O)NCCCN1CCN(c2cc(Cl)ccc2O)CC1 [Example 2, N-{3-[4-(5-Chloro-2-hydroxyphenyl)-1-piperazinyl]propyl}-5-methyl-3-phenylisoxazole-4-carboxamide] | 9.97 | 49.5 |  |  |  |  | 
3 | Cc1onc(-c2ccccc2)c1C(=O)NCCCN1CCN(c2ccccc2OCC(F)(F)F)CC1 [Example 3, 5-Methyl-3-phenyl-N-{3-[4-[2-(2,2,2-trifluoroethoxy)phenyl]-1-piperazinyl]propyl}isoxazole-4-carboxamide] | 36.2 | 11.7 |  |  |  |  | 
4 | COc1ccc(OCC(F)(F)F)cc1N1CCN(CCCNC(=O)c2c(-c3ccccc3)noc2C)CC1 [Example 4, N-{3-[4-[2-Methoxy-5-(2,2,2-trifluoroethoxy)phenyl]-1-piperazinyl]propyl}-5-methyl-3-phenylisoxazole-4-carboxamide] | 570 |  |  |  |  |  | 
5 | Cc1onc(-c2ccccc2)c1C(=O)NCCCN1CCN(c2cc(F)ccc2OCC(F)(F)F)CC1 [Example 5, N-{3-[4-[5-Fluoro-2-(2,2,2-trifluoroethoxy)phenyl]-1-piperazinyl]propyl}-5-methyl-3-phenylisoxazole-4-carboxamide] | 11.5 | 192 | 0.05 |  |  |  | 
6 | Cc1onc(-c2ccccc2)c1C(=O)NCCCN1CCN(c2ccc(F)cc2OCC(F)(F)F)CC1 [Example 6, N-{3-[4-[4-Fluoro-2-(2,2,2-trifluoroethoxy)phenyl]-1-piperazinyl]propyl}-5-methyl-3-phenylisoxazole-4-carboxamide] | 69.5 | 317 | 0.35 | 0.1967 | 0.0045 | 0.0024 | 
7 | Cc1onc(-c2ccccc2)c1C(=O)NCCCN1CCN(c2cc(Cl)ccc2OS(=O)(=O)C(F)(F)F)CC1 [Example 7, N-{3-[4-(5-Chloro-2-trifluoromethanesulphonyloxy)-1-piperazinyl]propyl}-5-methyl-3-phenylisoxazole-4-carboxamide] | 7.49 | ≥ 1000 |  |  |  |  | 
8 | O=C(NCCCN1CCN(c2ccc(F)cc2OCC(F)(F)F)CC1)c1conc1-c1ccc(F)cc1 [Example 8, 3-(4-Fluorophenyl)-N-[3-[4-[4-fluoro-2-(2,2,2-trifluoroethoxy)phenyl]-1-piperazinyl]propyl]-isoxazole-4-carboxamide] | 28.1 | 202 |  |  |  |  | 25/81
9 | Cc1onc(-c2c(F)cccc2Cl)c1C(=O)NCCCN1CCN(c2ccc(F)cc2OCC(F)(F)F)CC1 [Example 9, 3-(2-Chloro-6-fluorophenyl)-N-[3-[4-[4-fluoro-2-(2,2,2-trifluoroethoxy)phenyl]-1-piperazinyl]-propyl]-5-methylisoxazole-4-carboxamide] | 24.1 | 342 |  |  |  |  | 
10 | Cc1onc(-c2c(Cl)cccc2Cl)c1C(=O)NCCCN1CCN(c2ccc(F)cc2OCC(F)(F)F)CC1 [Example 10, 3-(2,6-Dichlorophenyl)-N-[3-[4-[4-fluoro-2-(2,2,2-trifluoroethoxy)phenyl]-1-piperazinyl]pro-pyl]-5-methylisoxazole-4-carboxamide] | 24.2 | 170 |  |  |  |  | 
11 | Cc1onc(-c2ccccc2Cl)c1C(=O)NCCCN1CCN(c2ccc(F)cc2OCC(F)(F)F)CC1 [Example 11, 3-(2-Chlorophenyl)-N-[3-[4-[4-fluoro-2-(2,2,2-trifluoroethoxy)phenyl]-1-piperazinyl]propyl]-5-methylisoxazole-4-carboxamide] | 31.2 | 242 |  |  |  |  | 
12 | Cc1onc(-c2c(F)cccc2Cl)c1C(=O)NCCCN1CCN(c2ccccc2OCC(F)(F)F)CC1 [Example 12, 3-(2-Chloro-6-fluorophenyl)-5-methyl-N-[3-[4-[2-(2,2,2-trifluoroethoxy)phenyl]1-piperazi-nyl]propyl]isoxazole-4-carboxamide] | 21.4 | 30 |  |  |  |  | 
